This experiment has as its target T1, human full-length MKNK1 (Homo sapiens, UniProt Q9BUB5, T385D).
T1 construct: purchased Carna Biosciences 02-145; host or cells: insect cells, baculovirus expression system
As to the kind of experiment: MKNK1 kinase high ATP assay (TR-FRET). Format: biochemical. As to conditions: high ATP (2 mM), 15 min preincubation with enzyme, GST-MKNK1 (T344D). The method, boiled down:
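GST-tagged full-length human MKNK1 (aa 1-424, T344D), baculovirus-expressed, preincubated 15 min with compound, then reacted 30 min at 22 °C with 2 mM ATP and 0.06 µM biotinylated peptide (final).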

This passage reports IC50 results from patent US20150133426A1, “SUBSTITUTED PYRROLOPYRIMIDINES” (BAYER PHARMA AKTIENGESELLSCHAFT, priority 2012, published 2015).

Structures can show the parent of a compound that is named as a salt.

T1 sequence (Q9BUB5 1-424 isoform Q9BUB5-2 T344D): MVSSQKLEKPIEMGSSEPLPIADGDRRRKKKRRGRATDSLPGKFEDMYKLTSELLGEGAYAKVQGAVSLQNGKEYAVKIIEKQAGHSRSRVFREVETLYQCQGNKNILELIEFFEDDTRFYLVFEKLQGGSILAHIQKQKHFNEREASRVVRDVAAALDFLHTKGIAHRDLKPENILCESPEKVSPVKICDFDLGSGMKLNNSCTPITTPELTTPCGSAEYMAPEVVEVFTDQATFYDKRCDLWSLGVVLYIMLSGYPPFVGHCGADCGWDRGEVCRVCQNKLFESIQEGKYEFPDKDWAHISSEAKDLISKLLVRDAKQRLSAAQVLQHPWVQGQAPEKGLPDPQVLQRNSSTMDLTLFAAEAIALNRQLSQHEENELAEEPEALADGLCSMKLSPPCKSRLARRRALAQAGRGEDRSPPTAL

The compound `CC(C)Oc1cc(F)ccc1Nc1ncnc2[nH]c3c(c12)CC(C(=O)O)CC3` (racemic) [Example 183, (RS)-4-{[4-Fluoro-2-(propan-2-yloxy)phenyl]amino}-6,7,8,9-tetrahydro-5H-pyrimido[4,5-b]indole-6-carboxylic acid] came in with an IC50 of 406 nM.

Compound `COc1cc2[nH]ncc2cc1Nc1ncnc2[nH]c3c(c12)CC(C(=O)O)CC3` (racemic) [Example 184, (RS)-4-[(6-Methoxy-1H-indazol-5-yl)amino]-6,7,8,9-tetrahydro-5H-pyrimido[4,5-b]indole-6-carboxylic acid hydrochloride (1:1)] gave an IC50 of 26 nM. As for `O=C(O)C1CCc2[nH]c3ncnc(N4CCc5ccccc54)c3c2C1` (racemic) [Example 185, (RS)-4-(2,3-Dihydro-1H-indol-1-yl)-6,7,8,9-tetrahydro-5H-pyrimido[4,5-b]indole-6-carboxylic acid], the figure is 8990 nM; as for `O=C(O)C1CCc2[nH]c3ncnc(Nc4ccccc4N4CCOCC4)c3c2C1` (racemic) [Example 186, (RS)-4-{[2-(Morpholin-4-yl)phenyl]amino}-6,7,8,9-tetrahydro-5H-pyrimido[4,5-b]indole-6-carboxylic acid], 911 nM; as for `O=C(O)CNC(=O)C1CCc2[nH]c3ncnc(Nc4ccc(F)cc4OCCO)c3c2C1` (racemic) [Example 187, (RS)—N-[(4-{[4-Fluoro-2-(2-hydroxyethoxy)phenyl]amino}-6,7,8,9-tetrahydro-5H-pyrimido[4,5-b]indol-6-yl)carbonyl]glycine], 123 nM. As for `CN(C)C(=O)C1CCc2[nH]c3ncnc(Nc4ccccc4OC4CCCC4)c3c2C1` (racemic) [Example 188, (RS)-4-{[2-(Cyclopentyloxy)phenyl]amino}-N,N-dimethyl-6,7,8,9-tetrahydro-5H-pyrimido[4,5-b]indole-6-carboxamide], the figure is 710 nM; as for `CNC(=O)C1CCc2[nH]c3ncnc(Nc4ccccc4OC4CCCC4)c3c2C1` (racemic) [Example 189, (RS)-4-{[2-(Cyclopentyloxy)phenyl]amino}-N-methyl-6,7,8,9-tetrahydro-5H-pyrimido[4,5-b]indole-6-carboxamide], 84 nM; as for `CCNC(=O)C1CCc2[nH]c3ncnc(Nc4ccccc4OC4CCCC4)c3c2C1` (racemic) [Example 190, (RS)-4-{[2-(Cyclopentyloxy)phenyl]amino}-N-ethyl-6,7,8,9-tetrahydro-5H-pyrimido[4,5-b]indole-6-carboxamide], 88 nM.

The compound `O=C(NC1CC1)C1CCc2[nH]c3ncnc(Nc4ccccc4OC4CCCC4)c3c2C1` (racemic) [Example 191, (RS)-4-{[2-(Cyclopentyloxy)phenyl]amino}-N-cyclopropyl-6,7,8,9-tetrahydro-5H-pyrimido[4,5-b]indole-6-carboxamide] yielded an IC50 of 171 nM. As for `CN1CCN(C(=O)C2CCc3[nH]c4ncnc(Nc5ccccc5OC5CCCC5)c4c3C2)CC1` (racemic) [Example 192, (RS)-(4-{[2-(Cyclopentyloxy)phenyl]amino}-6,7,8,9-tetrahydro-5H-pyrimido[4,5-b]indol-6-yl)(4-methylpiperazin-1-yl)methanone], the figure is 181 nM; as for `O=C(Nc1ccccc1)C1CCc2[nH]c3ncnc(Nc4ccccc4OC4CCCC4)c3c2C1` (racemic) [Example 193, (RS)-4-{[2-(Cyclopentyloxy)phenyl]amino}-N-phenyl-6,7,8,9-tetrahydro-5H-pyrimido[4,5-b]indole-6-carboxamide], 2890 nM; as for `CCNC(=O)C1CCc2[nH]c3ncnc(Nc4cc(F)ccc4OC)c3c2C1` (racemic) [Example 194, (RS)—N-Ethyl-4-[(5-fluoro-2-methoxyphenyl)amino]-6,7,8,9-tetrahydro-5H-pyrimido[4,5-b]indole-6-carboxamide], 159 nM. Take `COc1ccc(F)cc1Nc1ncnc2[nH]c3c(c12)CC(C(=O)NC(C)C)CC3` (racemic) [Example 195, (RS)-4-[(5-Fluoro-2-methoxyphenyl)amino]-N-(propan-2-yl)-6,7,8,9-tetrahydro-5H-pyrimido[4,5-b]indole-6-carboxamide]: the half-maximal inhibitory concentration (IC50) was 123 nM. On to `COc1ccc(F)cc1Nc1ncnc2[nH]c3c(c12)CC(C(=O)N1CCN(C)CC1)CC3` (racemic) [Example 196, (RS)-{4-[(5-Fluoro-2-methoxyphenyl)amino]-6,7,8,9-tetrahydro-5H-pyrimido[4,5-b]indol-6-yl}(4-methylpiperazin-1-yl)methanone], for which 115 nM corresponded to half-maximal inhibition (IC50).

Regarding `COc1ccc(F)cc1Nc1ncnc2[nH]c3c(c12)CC(C(=O)NC1CC1)CC3` (racemic) [Example 197, (RS)—N-Cyclopropyl-4-[(5-fluoro-2-methoxyphenyl)amino]-6,7,8,9-tetrahydro-5H-pyrimido[4,5-b]indole-6-carboxamide], 188 nM corresponded to half-maximal inhibition (IC50). In turn, `COc1ccc(F)cc1Nc1ncnc2[nH]c3c(c12)CC(C(=O)NCCC(F)(F)F)CC3` (racemic) [Example 198, (RS)-4-[(5-Fluoro-2-methoxyphenyl)amino]-N-(3,3,3-trifluoropropyl)-6,7,8,9-tetrahydro-5H-pyrimido[4,5-b]indole-6-carboxamide] showed an IC50 of 249 nM. As for `COc1ccc(F)cc1Nc1ncnc2[nH]c3c(c12)CC(C(=O)Nc1ccccc1)CC3` (racemic) [Example 199, (RS)-4-[(5-Fluoro-2-methoxyphenyl)amino]-N-phenyl-6,7,8,9-tetrahydro-5H-pyrimido[4,5-b]indole-6-carboxamide], the figure is no less than 20000 nM; as for `COc1ccc(F)cc1Nc1ncnc2[nH]c3c(c12)CC(C(=O)NCc1ccccc1)CC3` (racemic) [Example 200, (RS)—N-Benzyl-4-[(5-fluoro-2-methoxyphenyl)amino]-6,7,8,9-tetrahydro-5H-pyrimido[4,5-b]indole-6-carboxamide], 100 nM; as for `CCNC(=O)C1CCc2[nH]c3ncnc(Nc4ccccc4N4CCOCC4)c3c2C1` (racemic) [Example 201, (RS)—N-Ethyl-4-{[2-(morpholin-4-yl)phenyl]amino}-6,7,8,9-tetrahydro-5H-pyrimido[4,5-b]indole-6-carboxamide], 215 nM. As for `CC(C)NC(=O)C1CCc2[nH]c3ncnc(Nc4ccccc4N4CCOCC4)c3c2C1` (racemic) [Example 202, (RS)-4-{[2-(Morpholin-4-yl)phenyl]amino}-N-(propan-2-yl)-6,7,8,9-tetrahydro-5H-pyrimido[4,5-b]indole-6-carboxamide], the figure is 267 nM. As for `O=C(NC1CC1)C1CCc2[nH]c3ncnc(Nc4ccccc4N4CCOCC4)c3c2C1` (racemic) [Example 203, (RS)—N-Cyclopropyl-4-{[2-(morpholin-4-yl)phenyl]amino}-6,7,8,9-tetrahydro-5H-pyrimido[4,5-b]indole-6-carboxamide], the figure is 175 nM. In turn, `O=C(Nc1ccccc1)C1CCc2[nH]c3ncnc(Nc4ccccc4N4CCOCC4)c3c2C1` (racemic) [Example 205, (RS)-4-{[2-(Morpholin-4-yl)phenyl]amino}-N-phenyl-6,7,8,9-tetrahydro-5H-pyrimido[4,5-b]indole-6-carboxamide] yielded an IC50 of 242 nM. This IC50 and that of the compound before are within 1.5-fold of each other. As for `O=C(NCc1ccccc1)C1CCc2[nH]c3ncnc(Nc4ccccc4N4CCOCC4)c3c2C1` (racemic) [Example 206, (RS)—N-Benzyl-4-{[2-(morpholin-4-yl)phenyl]amino}-6,7,8,9-tetrahydro-5H-pyrimido[4,5-b]indole-6-carboxamide], the figure is 77 nM.

As for `CCNC(=O)C1CCc2[nH]c3ncnc(N4CCc5ccccc54)c3c2C1` (racemic) [Example 207, (RS)-4-(2,3-Dihydro-1H-indol-1-yl)-N-ethyl-6,7,8,9-tetrahydro-5H-pyrimido[4,5-b]indole-6-carboxamide], the IC50 was 3140 nM. This IC50 lies about 41-fold higher than the previous one. In the case of `CC(C)NC(=O)C1CCc2[nH]c3ncnc(N4CCc5ccccc54)c3c2C1` (racemic) [Example 208, (RS)-4-(2,3-Dihydro-1H-indol-1-yl)-N-(propan-2-yl)-6,7,8,9-tetrahydro-5H-pyrimido[4,5-b]indole-6-carboxamide], the midpoint of inhibition, the IC50, lay at 2750 nM. This IC50 and that of the compound before are within 1.5-fold of each other.

Turning to `O=C(NCc1ccccc1)C1CCc2[nH]c3ncnc(N4CCc5ccccc54)c3c2C1` (racemic) [Example 209, (RS)—N-Benzyl-4-(2,3-dihydro-1H-indol-1-yl)-6,7,8,9-tetrahydro-5H-pyrimido[4,5-b]indole-6-carboxamide], the IC50 was found to be 450 nM. Regarding `O=C(NCc1cccc(C(F)(F)F)c1)C1CCc2[nH]c3ncnc(N4CCc5ccccc54)c3c2C1` (racemic) [Example 210, (RS)-4-(2,3-Dihydro-1H-indol-1-yl)-N-[3-(trifluoromethyl)benzyl]-6,7,8,9-tetrahydro-5H-pyrimido[4,5-b]indole-6-carboxamide], the IC50 is no less than 20000 nM. Regarding `CN1CCN(C(=O)C2CCc3[nH]c4ncnc(N5CCc6ccccc65)c4c3C2)CC1` (racemic) [Example 211, (RS)-[4-(2,3-Dihydro-1H-indol-1-yl)-6,7,8,9-tetrahydro-5H-pyrimido[4,5-b]indol-6-yl](4-methylpiperazin-1-yl)methanone], 3410 nM corresponded to half-maximal inhibition (IC50). That is a single-digit micromolar value. `CNC(=O)C1CCc2[nH]c3ncnc(N4CCc5ccccc54)c3c2C1` (racemic) [Example 212, (RS)-4-(2,3-Dihydro-1H-indol-1-yl)-N-methyl-6,7,8,9-tetrahydro-5H-pyrimido[4,5-b]indole-6-carboxamide] showed an IC50 of 910 nM. As for `COc1ccc(C(F)(F)F)cc1Nc1ncnc2[nH]c3c(c12)CC(C(=O)NC(C)C)CC3` (racemic) [Example 213, (RS)-4-{[2-Methoxy-5-(trifluoromethyl)phenyl]amino}-N-(propan-2-yl)-6,7,8,9-tetrahydro-5H-pyrimido[4,5-b]indole-6-carboxamide], the figure is 103 nM. Consider `COc1ccc(C(F)(F)F)cc1Nc1ncnc2[nH]c3c(c12)CC(C(=O)Nc1ccccc1)CC3` (racemic) [Example 214, (RS)-4-{[2-Methoxy-5-(trifluoromethyl)phenyl]amino}-N-phenyl-6,7,8,9-tetrahydro-5H-pyrimido[4,5-b]indole-6-carboxamide], for which the IC50 amounted to 3400 nM.
